In paper PMC9839384 (Slas Discovery, 2023):

Columns and labels:
293T cells = details: initial screening
SARS-CoV-2 3CLpro = SARS-CoV-2 3CLpro (Severe acute respiratory syndrome coronavirus 2, UniProt P0DTD1); assay type: cell-based
3CLpro = 3CLpro (Severe acute respiratory syndrome coronavirus 2, UniProt P0DTD1); assay: 3CLpro biochemical inhibition assay; parameters: species or system SARS-CoV-2
[1] = tested on: SARS-CoV-2 3CLpro-HA, RLuc, FLuc in HEK293T cells; assay type: cell-based; details: actin as control

Structure (SMILES)	cytotoxicity, in words (293T cells)	inhibition against viral proteases, in words (SARS-CoV-2 3CLpro)	potency in the enzymatic assay, in words (3CLpro)	Emax (3CLpro; Supplementary Fig. 2, panel D)	protein expression by western blot [1]
COc1ccc(/C=C/C(=O)Nc2ccccc2C(=O)O)cc1OC [Tranilast, (E)-2-(3-(3,4-dimethoxyphenyl)acrylamido)benzoic acid]	nontoxic	SARS 3CLpro specific inhibition			
O=C(/C=C/c1ccc(Cl)c(Cl)c1)Nc1ccccc1C(=O)O [SR-32229]			low-µM affinity	~100 % of tranilast	
CCN1CCN(Cc2ccc(NC(=O)Nc3ccc(Oc4cc(NC)ncn4)cc3)cc2C(F)(F)F)CC1 [AST-487]		some selective SARS 3CLpro inhibition but only at the highest concentration tested			
CC(C)C[C@H](NC(=O)[C@H](CCc1ccccc1)NC(=O)CN1CCOCC1)C(=O)N[C@@H](Cc1ccccc1)C(=O)N[C@@H](CC(C)C)C(=O)[C@@]1(C)CO1 [Carfilzomib]		inhibited all the proteases tested			decrease in all exogenously expressed constructs
